These results are taken from patent US12398154B2, “Azaquinazoline pan-KRas inhibitors” (Mirati Therapeutics, Inc., priority 2020, dated 2025).

Assay in all cases: biochemical
Test [1] deals with KRas G12C (Homo sapiens, UniProt P01116, G12C).
Method: (§1) The ability of a compound to bind to KRas was measured using a TR-FRET displacement assay. […] After a 60-minute incubation at room temperature, the reaction was measured using a BMG LABTECH CLARIO star Plus via TR-FRET. […] The POC values were fit to a 4-parameter IC50 equation and the IC50 value reported.
Test [2] deals with KRas G12R (Homo sapiens, UniProt P01116, G12R).
Method: as §1
For test [3], the target named is KRas G12V (Homo sapiens, UniProt P01116, G12V).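 Note: KRas binding measured by TR-FRET displacement at room temperature, IC50 fitted from percent of control values.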
KRas G12V, sequence (P01116 1-169 isoform P01116-2 G12V): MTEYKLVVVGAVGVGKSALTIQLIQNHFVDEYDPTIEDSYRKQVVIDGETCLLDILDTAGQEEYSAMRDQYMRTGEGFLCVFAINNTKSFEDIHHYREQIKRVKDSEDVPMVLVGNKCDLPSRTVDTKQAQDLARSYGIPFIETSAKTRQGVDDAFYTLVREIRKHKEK
Method: as §1
The target in test [4] is KRas G12A (Homo sapiens, UniProt P01116, G12A).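 Note: binding to KRas measured by TR-FRET displacement after one hour at room temperature, IC50 from a four-parameter fit of percent-of-control values.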
KRas G12A, sequence (P01116 1-169 isoform P01116-2 G12A): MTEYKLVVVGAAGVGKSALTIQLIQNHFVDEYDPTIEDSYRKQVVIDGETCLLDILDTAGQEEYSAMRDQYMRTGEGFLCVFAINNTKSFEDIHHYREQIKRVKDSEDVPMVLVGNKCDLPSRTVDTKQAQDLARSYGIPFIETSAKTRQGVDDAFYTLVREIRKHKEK
Method: as §1
Test [5] concerns the target KRas WT (Homo sapiens, UniProt P01116).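 Note: binding to KRas read as TR-FRET displacement after a one-hour room-temperature incubation, IC50 derived from percent-of-control values.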
Method: as §1
Test [6] addresses KRas G12D (Homo sapiens, UniProt P01116, G12D).
Method: as §1
The target of test [7] is KRas G12S (Homo sapiens, UniProt P01116, G12S).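 Note: TR-FRET displacement binding to KRas, read after one hour incubation at room temperature, IC50 from four-parameter fit of percent of control.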
KRas G12S, sequence (P01116 1-169 isoform P01116-2 G12S): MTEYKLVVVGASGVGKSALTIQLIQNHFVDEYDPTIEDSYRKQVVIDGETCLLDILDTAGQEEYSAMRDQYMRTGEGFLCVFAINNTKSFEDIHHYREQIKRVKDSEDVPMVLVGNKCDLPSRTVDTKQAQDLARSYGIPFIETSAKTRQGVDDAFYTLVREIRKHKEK
Method: as §1

KRas G12R, sequence (P01116 1-169 isoform P01116-2 G12R): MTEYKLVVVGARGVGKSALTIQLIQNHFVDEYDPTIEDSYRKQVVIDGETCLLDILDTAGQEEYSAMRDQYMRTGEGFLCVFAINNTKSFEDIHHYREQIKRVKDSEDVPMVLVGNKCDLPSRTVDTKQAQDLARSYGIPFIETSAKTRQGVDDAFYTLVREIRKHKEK
KRas G12C, sequence (P01116 1-169 isoform P01116-2 G12C): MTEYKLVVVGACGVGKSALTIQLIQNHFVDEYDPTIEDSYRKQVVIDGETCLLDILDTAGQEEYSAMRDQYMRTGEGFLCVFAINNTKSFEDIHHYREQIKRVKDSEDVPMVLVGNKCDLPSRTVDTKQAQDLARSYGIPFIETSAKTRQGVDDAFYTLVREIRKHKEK
KRas WT, sequence (P01116 1-169 isoform P01116-2): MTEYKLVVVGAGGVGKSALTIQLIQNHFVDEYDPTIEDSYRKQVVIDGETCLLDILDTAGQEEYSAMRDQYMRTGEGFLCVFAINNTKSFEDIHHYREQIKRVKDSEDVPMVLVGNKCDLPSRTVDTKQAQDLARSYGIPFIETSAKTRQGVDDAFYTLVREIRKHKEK
KRas G12D, sequence (P01116 1-169 isoform P01116-2 G12D): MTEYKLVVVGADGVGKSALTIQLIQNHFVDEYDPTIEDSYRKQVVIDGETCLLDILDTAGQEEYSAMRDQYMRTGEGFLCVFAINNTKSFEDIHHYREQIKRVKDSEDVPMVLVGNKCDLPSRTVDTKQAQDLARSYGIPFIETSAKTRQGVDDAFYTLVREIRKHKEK

As to `CC1(O)CCCN(c2nc(OCC34CCCN3CCC4)nc3c(F)c(-c4cccc5cccc(C6CC6)c45)ncc23)C1` (stereo not drawn) [Example 440, 1-(7-(8-cyclopropylnaphthalen-1-yl)-8-fluoro-2-((hexahydro-1H-pyrrolizin-7a-yl)methoxy)pyrido[4,3-d]pyrimidin-4yl)-3-methylpiperidin-3-ol], the 50% inhibitory concentration (IC50) (usually the concentration that gives 50% inhibition) amounted to 550 nM in test [1]; 1720 nM in test [2]; 844 nM in test [3]; 758 nM in test [4]; 714 nM in test [5]; 510 nM in test [6]. In addition, half-maximal inhibition in test [7] (IC50) was put at 690 nM.
Turning to `N#Cc1cccc2cccc(-c3ncc4c(N5CCCC6(C5)NC(=O)NC6=O)nc(OCC56CCCN5CCC6)nc4c3F)c12` (stereo not drawn) [Example 449, 8-(4-(2,4-dioxo-1,3,7-triazaspiro[4.5]decan-7-yl)-8-fluoro-2-((hexahydro-1H-pyrrolizin-7a-yl)methoxy)pyrido[4,3-d]pyrimidin-7-yl)-1-naphthonitrile], the IC50 in test [1] was found to be 3600 nM; in test [2], 4380 nM; in test [3] it was 3660 nM; in test [4], 5620 nM; in test [5], 4070 nM; in test [6], 8390 nM. Moreover, half-maximal inhibition in test [7] (IC50) required 4160 nM.
For the molecule `CCc1cccc2cccc(-c3ncc4c(N5CC6CC(O)C(C6)C5)nc(OCC56CCCN5CCC6)nc4c3F)c12` (stereo not drawn) [Example 290, 3-(7-(8-ethylnaphthalen-1-yl)-8-fluoro-2-((hexahydro-1H-pyrrolizin-7a-yl)methoxy)pyrido[4,3-d]pyrimidin-4-yl)-3-azabicyclo[3,2,1]octan-6-ol], the 50% inhibitory concentration (IC50) came to 207 nM in test [1]; 176 nM in test [2]; 171 nM in test [3]; 183 nM in test [4]; 276 nM in test [5]; 582 nM in test [6]. In test [7], this molecule gave an IC50 of 147 nM.
Consider `CCc1cccc2cccc(-c3ncc4c(NCc5cn[nH]c5)nc(OCC56CCCN5CCC6)nc4c3F)c12` [Example 287, N-((1H-pyrazol-4-yl)methyl)-7-(8-ethylnaphthalen-1-yl)-8-fluoro-2-((hexahydro-1H-pyrrolizin-7a-yl)methoxy)pyrido[4,3-d]pyrimidin-4-amine], for which the IC50 in test [1] was 321 nM; in test [2] it was 225 nM; in test [3] it was 225 nM; in test [4], 648 nM; in test [5], 838 nM; in test [6] it was 8170 nM. In test [7], the IC50 turned out to be 590 nM.
For the molecule `O=C1NCC2(CCCN(c3nc(OCC45CCCN4CCC5)nc4c(F)c(-c5cccc6cccc(Cl)c56)ncc34)C2)N1` (stereo not drawn) [Example 284, 7-(7-(8-chloronaphthalen-1-yl)-8-fluoro-2-((hexahydro-1H-pyrrolizin-7a-yl)methoxy)pyrido[4,3-d]pyrimidin-4-yl)-1,3,7-triazaspiro[4.5]decan-2-one], the IC50 in test [1] turned out to be 44 nM; in test [2], 58 nM; in test [3], 41 nM; in test [4] it was 46 nM; in test [5], 46 nM; in test [6] it was 38 nM. In test [7], this molecule returned an IC50 of 45 nM.
As for `NS(=O)(=O)CC1CCCN(c2nc(OCC34CCCN3CCC4)nc3c(F)c(-c4cccc5cccc(CF)c45)ncc23)C1` (stereo not drawn) [Example 460, 1-(1-(8-fluoro-7-(8-(fluoromethyl)naphthalen-1-yl)-2-((hexahydro-1H-pyrrolizin-7a-yl)methoxy)pyrido[4,3-d]pyrimidin-4-yl)piperidin-3-yl)methanesulfonamide], the IC50 was found to be 916 nM in test [1]; 548 nM in test [2]; 1470 nM in test [3]; 760 nM in test [4]; 693 nM in test [5]; 2320 nM in test [6]. Also, in test [7], the IC50 was 759 nM.
As for `CCc1cccc2cccc(-c3ncc4c(N5CCOCC(C)(O)C5)nc(OCC56CCCN5CCC6)nc4c3F)c12` (stereo not drawn) [Example 291, 4-(7-(8-ethylnaphthalen-1-yl)-8-fluoro-2-((hexahydro-1H-pyrrolizin-7a-yl)methoxy)pyrido[4,3-d]pyrimidin-4-yl)-6-methyl-1,4-oxazepan-6-ol], the 50% inhibitory concentration (IC50) amounted to 161 nM in test [1]; 439 nM in test [2]; 277 nM in test [3]; 229 nM in test [4]; 269 nM in test [5]; 140 nM in test [6]. In test [7], inhibition was half-maximal at 192 nM (IC50).
`Cc1ccc(O)cc1-c1ncc2c(N3CCCC(C)(O)C3)nc(OCC34CCCN3CCC4)nc2c1F` (stereo not drawn) [Example 432, 1-(8-fluoro-2-((hexahydro-1H-pyrrolizin-7a-yl)methoxy)-7-(5-hydroxy-2-methylphenyl)pyrido[4,3-d]pyrimidin-4-yl)-3-methylpiperidin-3-ol]: the half-maximal inhibitory concentration (IC50) amounted to 2410 nM in test [1]; 3040 nM in test [2]; 1930 nM in test [3]; 2270 nM in test [4]; 2480 nM in test [5]; 1140 nM in test [6]. In test [7], this molecule had a 50% inhibitory concentration (IC50) of 2410 nM.
Regarding `O=C1CC2(CCCN(c3nc(OCC45CCCN4CCC5)nc4c(F)c(-c5cccc6cccc(CF)c56)ncc34)C2)N1` (stereo not drawn) [Example 468, 6-(8-fluoro-7-(8-(fluoromethyl)naphthalen-1-yl)-2-((hexahydro-1H-pyrrolizin-7a-yl)methoxy)pyrido[4,3-d]pyrimidin-4-yl)-1,6-diazaspiro[3.5]nonan-2-one], the concentration for half-maximal inhibition (IC50) in test [1] was found to be 2410 nM; in test [2], 2900 nM; in test [3], 2310 nM; in test [4], 2810 nM; in test [5], 3020 nM; in test [6], 2880 nM. In addition, 2480 nM corresponded to half-maximal inhibition in test [7] (IC50).
For the molecule `Cc1cccc2cccc(-c3ncc4c(N5CCCC6(CC(=O)N6)C5)nc(OCC56CCCN5CCC6)nc4c3F)c12` (stereo not drawn) [Example 450, 6-(8-fluoro-2-((hexahydro-1H-pyrrolizin-7a-yl)methoxy)-7-(8-methylnaphthalen-1-yl)pyrido[4,3-d]pyrimidin-4-yl)-1,6-diazaspiro[3.5]nonan-2-one], the half-maximal inhibitory concentration (IC50) in test [1] turned out to be 235 nM; in test [2], 344 nM; in test [3], 238 nM; in test [4], 356 nM; in test [5], 335 nM; in test [6] it was 250 nM. For the same molecule, in test [7], half-maximal inhibition (IC50) was put at 276 nM.
`CNc1cc2n(n1)CCCN(c1nc(OCC34CCCN3CCC4)nc3c(F)c(-c4cccc5cccc(F)c45)ncc13)C2` [Example 263, 5-(8-fluoro-7-(8-fluoronaphthalen-1-yl)-2-((tetrahydro-1H-pyrrolizin-7a(5H)-yl)methoxy)pyrido[4,3-d]pyrimidin-4-yl)-N-methyl-5,6,7,8-tetrahydro-4H-pyrazolo[1,5-a][1,4]diazepin-2-amine]: the IC50 in test [1] worked out at 4410 nM; in test [2], 3040 nM; in test [3] it was 4030 nM; in test [4], 4940 nM; in test [5] it was 9090 nM; in test [6], 1980 nM. Further, 3550 nM corresponded to half-maximal inhibition in test [7] (IC50).
Take `Cc1cc(-c2ncc3c(N4CCCC(C)(O)C4)nc(OCC45CCCN4CCC5)nc3c2F)c2cn[nH]c2c1` (stereo not drawn) [Example 431, 1-(8-fluoro-7-(6-methyl-1H-indazol-4-yl)-2-((tetrahydro-1H-pyrrolizin-7a(5H)-yl)methoxy)pyrido[4,3-d]pyrimidin-4-yl)-3-methylpiperidin-3-ol]: the IC50 in test [1] amounted to 17900 nM; in test [2], 34400 nM; in test [3], 15900 nM; in test [4], 19600 nM; in test [5] it was 19700 nM; in test [6], 9620 nM. The molecule further showed a concentration for half-maximal inhibition (IC50) in test [7] of 19700 nM.
